The values that follow come from paper PMC9024523, “Phenoxyaromatic Acid Analogues as Novel Radiotherapy Sensitizers: Design, Synthesis and Biological Evaluation” (Molecules, 2022).

In the test the test system is mouse red blood cells. The experiment in a line: In vitro red blood cell-based assay (oxygen equilibrium curve, Softron analyzer). As to conditions: final effector concentration 2 mM, mean ± SD; for P50/P50C: P50C = control with 1% DMSO; for P50: 1% DMSO; for P50 / ∆P50: mouse red blood cells; for ∆P50: ∆P50 = P50 − P50C. The text has this: In the first stage of our research, three series of analogues were designed and synthesized to explore refinement of the hydrophobic parts of 19f, 19m, 24a and 24b; hinge areas of 18g, 19b and 19y; and tail regions of 15c, 15d and 16c, respectively. We used the Softron Analyzer to evaluate the effect of these compounds on the half-blood oxygen saturation(P50) value of red blood cells. The most promising phenoxyaromatic acid compound, efaproxiral, was used as a positive control. […] The results reminded us that the modification of the hydrophobic part or linker extension is beneficial to improve an allosteric effect.
Eight-week-old female C57BL6J mice were purchased from Beijing Vital River Laboratory Animal Technology Co., Ltd. A total of 540 μL mouse blood was added into the 1.5 mL centrifuge tube, followed by adding 60 μL 3.8% sodium citrate. The mixture was then centrifuged at 1500 rpm for 10 min, the supernatant was carefully aspirated, and the cells were washed three times with PBS solution. After mixing packed red blood cells with Alsever’s solution in a ratio of 1:1, a blood gas analyzer (RADIOMETER ABL 90) was used to analyze the red blood cell density and hemoglobin concentration.
All of the compounds were prepared as 200 mM stock solutions in DMSO. Oxygen equilibrium measurements were performed with the Softron analyzer (Softron Medical Products, Beijing, China) using mouse red blood cells. The samples were prepared by adding 3 mg hemoglobin equivalent of red blood cells into 3.92 mL loading buffer (100 mM NaCl, 50 mM bis-Tris at pH 7.2 and 25 °C), followed by 20 μL 10% Dimethicone as a defoamer and 20 μL 20% BSA. Afterwards, 40 μL stock solution was added, and the mixture was loaded to the sample cell and fully deoxygenated by blowing into nitrogen at 37 °C for 15 min. Then, the oxygen equilibrium curve was recorded by blowing into oxygen.

Where “and” joins values, the source holds several entries; their conditions need not be identical. Equal values may be shown once.

Take “2-(4-(1-((3,5-dimethylphenyl)carbamoyl)cyclopropyl)phenoxy)-2-methylpropanoic acid [19e]”: the P50/P50C is listed as 1.10 ± 0.04, the P50 came to 46.24 ± 7.09 mmHg, the “K (Hill coefficient of the oxygen dissociation curve at 50% saturation)” value came out at 2.40 ± 0.12 and the “∆P50” value is reported as 4.41 ± 2.27 mmHg.

For the molecule “2-(4-(2-((3-bromo-5-chlorophenyl)amino)ethyl)phenoxy)-2-methylpropanoic acid [18b]”, the P50/P50C is recorded as 1.10 ± 0.03, the P50 is 42.61 ± 2.15 mmHg, the “K (Hill coefficient of the oxygen dissociation curve at 50% saturation)” value came out at 2.19 ± 0.01 and the “∆P50” value was 3.66 ± 0.88 mmHg.

Turning to “2-(4-(2-([1,1′-biphenyl]-4-ylamino)ethyl)phenoxy)-2-methylpropanoic acid [18e]”, the P50/P50C amounted to 1.15 ± 0.37, the P50 turned out to be 51.84 ± 16.79 mmHg, the “K (Hill coefficient of the oxygen dissociation curve at 50% saturation)” value is recorded as 2.28 ± 0.28 and the “∆P50” value turned out to be 6.60 ± 16.79 mmHg.

For “2-methyl-2-(4-(2-(naphthalen-2-ylamino)ethyl)phenoxy)propanoic acid [18f]”, the P50/P50C was determined as 1.72 ± 0.03, the P50 was determined as 79.24 ± 1.61 mmHg, the “K (Hill coefficient of the oxygen dissociation curve at 50% saturation)” value came to 1.89 ± 0.13 and the “∆P50” value is recorded as 33.13 ± 1.61 mmHg.

Regarding “2-methyl-2-(4-(2-oxo-2-(o-tolylamino)ethyl)phenoxy)propanoic acid [19f]”, the P50/P50C was determined as 1.17 ± 0.04, the P50 is listed as 53.78 ± 1.94 mmHg, the “K (Hill coefficient of the oxygen dissociation curve at 50% saturation)” value amounted to 2.26 ± 0.11 and the “∆P50” value turned out to be 7.72 ± 1.87 mmHg.

In the case of “7-(2-((3,5-dimethylphenyl)amino)-2-oxoethyl)-2,3-dihydrobenzo[b][1,4]dioxine-2-carboxylic acid [compound 20]”, the P50/P50C was found to be 1.12 ± 0.06, the P50 turned out to be 47.11 ± 8.08 mmHg, the “K (Hill coefficient of the oxygen dissociation curve at 50% saturation)” value was 2.39 ± 0.16 and the “∆P50” value is reported as 5.27 ± 3.27 mmHg.

For `CCOC(=O)CCCOc1ccc(CC(=O)Nc2cc(C)cc(C)c2)cc1` [15a, Ethyl 4-(4-(2-((3,5-dimethylphenyl)amino)-2-oxoethyl)phenoxy)butanoate], the P50/P50C was 0.96 ± 0.25, the P50 is 43.55 ± 11.21 mmHg and the “∆P50” value is −1.70 ± 11.21 mmHg.

With `COC(=O)C(Oc1ccc(CC(=O)Nc2cc(C)cc(C)c2)cc1)c1ccccc1` (stereo not drawn) [15b, Methyl2-(4-(2-((3,5-dimethylphenyl)amino)-2-oxoethyl)phenoxy)-2-phenylacetate], the P50/P50C amounted to 1.28 ± 0.19, the P50 is recorded as 57.82 ± 8.69 mmHg and the “∆P50” value was 12.58 ± 8.69 mmHg.

For the molecule `COC(=O)C(C)(C)Oc1ccc(CC(=O)Nc2cc(C)cc(C)c2)cc1` [15c, Methyl2-(4-(2-((3,5-dimethylphenyl)amino)-2-oxoethyl)phenoxy)-2methylpropanoate], the P50/P50C came out at 0.96 ± 0.26, the P50 is recorded as 43.28 ± 11.71 mmHg and the “∆P50” value is −1.96 ± 11.71 mmHg.

For `Cc1cc(C)cc(NC(=O)Cc2ccc(OCCCC(=O)O)cc2)c1` [16a, 4-(4-(2-((3,5-dimethylphenyl)amino)-2-oxoethyl)phenoxy)butanoic acid], the P50/P50C was 1.18 ± 0.04, the P50 was found to be 53.49 ± 1.85 mmHg and the “∆P50” value is listed as 8.25 ± 1.85 mmHg.

Take `Cc1cc(C)cc(NCCCc2ccc(OC(C)(C)C(=O)O)cc2)c1` [18a, 2-(4-(3-((3,5-dimethylphenyl)amino)propyl)phenoxy)-2-methylpropanoic acid]: the P50/P50C is 1.41 ± 0.03, the P50 stood at 77.19 ± 5.93 mmHg and the “∆P50” value came to 22.54 ± 2.74 mmHg.

Turning to `CSc1cccc(NCCc2ccc(OC(C)(C)C(=O)O)cc2)c1` [18c, 2-methyl-2-(4-(2-((3-(methylthio)phenyl)amino)ethyl)phenoxy)propanoic acid], the P50/P50C is 1.28 ± 0.07, the P50 came to 48.61 ± 4.43 mmHg and the “∆P50” value stood at 10.7 ± 2.95 mmHg.

For `C#Cc1cccc(NCCc2ccc(OC(C)(C)C(=O)O)cc2)c1` [18d, 2-(4-(2-((3-ethynylphenyl)amino)ethyl)phenoxy)-2-methylpropanoic acid], the P50/P50C is listed as 1.15 ± 0.05, the P50 is 52.25 ± 2.32 mmHg and the “∆P50” value stood at 7.01 ± 2.32 mmHg.

On to `Cc1cc(C)cc(NCCc2ccc(OC(C)(C)C(=O)O)cc2)c1` [18g, 2-(4-(2-((3,5-dimethylphenyl)amino)ethyl)phenoxy)-2-methylpropanoic acid], for which the P50/P50C turned out to be 1.86 ± 0.05; the P50 stood at 77.54 ± 6.96 mmHg; the “∆P50” value is 35.71 mmHg and 35.71 ± 2.14 mmHg.

As for `Cc1cc(C)cc(NC(=O)c2ccc(OC(C)(C)C(=O)O)cc2)c1` [19b, 2-(4-((3,5-dimethylphenyl)carbamoyl)phenoxy)-2-methylpropanoic acid], the P50/P50C turned out to be 1.04 ± 0.05, the P50 worked out at 43.01 ± 2.18 mmHg and the “∆P50” value is given as 1.82 ± 2.18 mmHg.

For the molecule `Cc1cc(C)cc(NC(=O)CCCc2ccc(OC(C)(C)C(=O)O)cc2)c1` [19d, 2-(4-(4-((3,5-dimethylphenyl)amino)-4-oxobutyl)phenoxy)-2-methylpropanoic acid], the P50/P50C is given as 1.60 ± 0.02, the P50 was 67.93 ± 8.80 mmHg and the “∆P50” value is reported as 25.43 ± 3.71 mmHg.

On to `CC(C)(Oc1ccc(CC(=O)Nc2cc(Br)cc(Br)c2)cc1)C(=O)O` [19h, 2-(4-(2-((3,5-dibromophenyl)amino)-2-oxoethyl)phenoxy)-2-methylpropanoic acid], for which the P50/P50C is listed as 1.87 ± 0.03, the P50 is on record as 68.71 ± 1.18 mmHg and the “∆P50” value is 31.90 ± 1.18 mmHg.

Consider `CC(C)(Oc1ccc(CC(=O)Nc2cccc(I)c2)cc1)C(=O)O` [19i, 2-(4-(2-((3-iodophenyl)amino)-2-oxoethyl)phenoxy)-2-methylpropanoic acid], for which the P50/P50C is on record as 1.91 ± 0.13; the P50 stood at 86.61 ± 6.04 mmHg; the “∆P50” value was 41.37 mmHg and 41.37 ± 6.04 mmHg.

Turning to `CC(C)(Oc1ccc(CC(=O)Nc2cc(Cl)cc(Br)c2)cc1)C(=O)O` [19j, 2-(4-(2-((3-. bromo-5-chlorophenyl)amino)-2-oxoethyl)phenoxy)-2-methylpropanoic acid], the P50/P50C is reported as 1.82 ± 0.02, the P50 worked out at 82.35 ± 0.80 mmHg and the “∆P50” value came to 37.11 ± 0.80 mmHg.

In the case of `CC(C)(Oc1ccc(CC(=O)Nc2ccccc2Br)cc1)C(=O)O` [19k, 2-(4-(2-((2-bromophenyl)amino)-2-oxoethyl)phenoxy)-2-methylpropanoic acid], the P50/P50C is reported as 1.34 ± 0.29, the P50 was 49.17 ± 10.7 mmHg and the “∆P50” value is 12.36 ± 10.79 mmHg.

`Cc1cccc(NC(=O)Cc2ccc(OC(C)(C)C(=O)O)cc2)c1Br` [19l, 2-(4-(2-((2-bromo-3-methylphenyl)amino)-2-oxoethyl)phenoxy)-2-methylpropanoic acid]: the P50/P50C came out at 1.56 ± 0.04, the P50 is 70.41 ± 1.68 mmHg and the “∆P50” value is 25.17 ± 1.68 mmHg.

Take `CSc1ccc(NC(=O)Cc2ccc(OC(C)(C)C(=O)O)cc2)cc1` [19m, 2-methyl-2-(4-(2-((4-(methylthio)phenyl)amino)-2-oxoethyl)phenoxy)propanoic acid]: the P50/P50C came to 1.80 ± 0.02; the P50 was determined as 74.24 ± 0.69 mmHg; the “∆P50” value was 33.05 mmHg and 33.05 ± 0.69 mmHg.

In the case of `CSc1cccc(NC(=O)Cc2ccc(OC(C)(C)C(=O)O)cc2)c1` [19m-1, 2-methyl-2-(4-(2-((3-(methylthio)phenyl)amino)-2-oxoethyl)phenoxy)propanoic acid], the P50/P50C turned out to be 1.81 ± 0.02; the P50 is 81.67 ± 0.95 mmHg; the “∆P50” value is 36.43 mmHg and 36.43 ± 0.95 mmHg.

As for `C#Cc1ccc(NC(=O)Cc2ccc(OC(C)(C)C(=O)O)cc2)cc1` [19n, 2-(4-(2-((4-ethynylphenyl)amino)-2-oxoethyl)phenoxy)-2-methylpropanoic acid], the P50/P50C worked out at 1.46 ± 0.02; the P50 amounted to 60.34 ± 0.70 mmHg; the “∆P50” value is 19.15 mmHg and 19.15 ± 0.70 mmHg.

On to `C#Cc1cccc(NC(=O)Cc2ccc(OC(C)(C)C(=O)O)cc2)c1` [19n-1, 2-(4-(2-((3-ethynylphenyl)amino)-2-oxoethyl)phenoxy)-2-methylpropanoic acid], for which the P50/P50C came out at 1.79 ± 0.04; the P50 was found to be 80.97 ± 1.77 mmHg; the “∆P50” value was 38.73 mmHg and 38.73 ± 2.47 mmHg.
